# Source: US20210253562A1, “ACYLSUFONAMIDE COMPOUNDS USEFUL AS EP3 RECEPTOR ANTAGONISTS” (Janssen Pharmaceutica NV, priority 2018, published 2021)
# Where “and” joins values, the source holds several entries; their conditions need not be identical. Identical values can stand only once.
# Target: T1, EP3 membrane (EP3 receptor) (Homo sapiens, UniProt P43115)
# T1 construct: purchased Millipore HTS092M
# T1 sequence (P43115 1-390): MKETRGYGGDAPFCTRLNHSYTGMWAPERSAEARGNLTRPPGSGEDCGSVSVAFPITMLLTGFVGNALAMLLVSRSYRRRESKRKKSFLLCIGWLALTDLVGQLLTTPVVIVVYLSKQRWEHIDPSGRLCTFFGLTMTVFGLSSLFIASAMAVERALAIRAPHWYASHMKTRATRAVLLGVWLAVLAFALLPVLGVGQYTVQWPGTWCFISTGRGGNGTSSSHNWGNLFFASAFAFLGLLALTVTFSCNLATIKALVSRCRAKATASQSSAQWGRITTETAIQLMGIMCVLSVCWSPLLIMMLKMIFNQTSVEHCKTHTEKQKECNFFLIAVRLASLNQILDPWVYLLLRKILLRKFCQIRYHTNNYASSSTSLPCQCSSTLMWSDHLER
# Assay: [3H]-PGE2 binding; EP3 competition binding (SPA)
# Conditions: not given
# Procedure: Biological Example 1: [3H]-PGE2 Binding
# EP3 competition binding was determined using the following materials and experimental conditions: • Beads=Perkin Elmer RPNQ0001 • [3H]PGE2=Perkin Elmer NET428025UC • 384-well plate=Perkin Elmer 6007290 • EP3 membrane=Millipore HTS092M • Membrane concentration=2 μg/well • Beads concentration=0.25 mg/well • [3H]-PGE2=2 nM; DMSO—0.1% • Binding buffer=50 mM Tris, 10 mM MgCl2, 1 mM EDTA, PH 7.4.
# The reaction system was prepared by mixing 5 μl of unlabeled compound; 5 μl of diluted [3H]-PGE2; 5 μl of diluted membrane; and 15 μl of SPA beads dissolved in binding buffer (adding in the following sequence: Unlabeled compound, [3H]-PGE2, Membrane and Beads).
# The binding buffer was removed from refrigeration (@ 4° C.) and allowed to warm to room temperature. Test compound (@ stock concentration of […] in DMSO) was serial dilutes (1:3) with 100% DMSO using Echo plate. Diluted test compound (30 nL) was dispensed to the 384-well assay plate (using Echo 550 Labcyte System). To each well was then added assay buffer (5 μl) and each well was spun. Beads were weighed out, dissolved in assay buffer to a concentration of 0.25 mg/15 μl. Original membrane was diluted with assay buffer to a concentration of 2 μg/5 μl. Original [3H]-PGE2 with diluted with assay buffer to a concentration of 12 nM. To each test well were then added diluted [3H]-PGE2 (5 μl), diluted membrane (5 μl), and dissolved beads (15 μl). The plate was equilibrated at room temperature on a plate shaker for 2 hours and then read with a TOPCOUNT scintillation plate reader. Results were analyzed using a Prism program with non-linear regression, one-site fit for Ki.
row,Ki,Compound
1,45 nM,"Cn1ncc2cc(S(=O)(=O)NC(=O)NC/C(F)=C3\CCCc4cnn(Cc5ccc(Cl)cc5Cl)c43)ccc21 [Compound #195, (Z)—N-((2-(1-(2,4-dichlorobenzyl)-1,4,5,6-tetrahydro-7H-indazol-7-ylidene)-2-fluoroethyl)carbamoyl)-1-methyl-1H-indazole-5-sulfonamide]"
2,22 nM,"Cn1ccc(S(=O)(=O)NC(=O)NC/C=C2\CCCc3cnn(Cc4ccc(Cl)cc4Cl)c32)n1 [Compound #153, (E)-N-((2-(1-(2,4-dichlorobenzyl)-1,4,5,6-tetrahydro-7H-indazol-7-ylidene)ethyl)carbamoyl)-1-methyl-1H-pyrazole-3-sulfonamide]"
3,6 nM,"Cc1cc(S(=O)(=O)NC(=O)NC/C=C2\CCCc3cnn(Cc4ccc(Cl)cc4Cl)c32)n(C)n1 [Compound #192, (E)-N-((2-(1-(2,4-dichlorobenzyl)-1,4,5,6-tetrahydro-7H-indazol-7-ylidene)ethyl)carbamoyl)-1,3-dimethyl-1H-pyrazole-5-sulfonamide]"
4,6 nM and 7 nM,"Cc1cc(S(=O)(=O)NC(=O)NC/C(F)=C2\COCc3cnn(Cc4ccc(Cl)cc4Cl)c32)sc1Cl [Compound #166, (E)-5-chloro-N-((2-(1-(2,4-dichlorobenzyl)-1,4-dihydropyrano[4,3-c]pyrazol-7(6H)-ylidene)-2-fluoroethyl)carbamoyl)-4-methylthiophene-2-sulfonamide]"
5,32 nM,"Cc1nc(C)c(S(=O)(=O)NC(=O)NC/C(F)=C2\CCCc3cnn(Cc4ccc(Cl)cc4Cl)c32)s1 [Compound #158, (Z)—N-((2-(1-(2,4-Dichlorobenzyl)-1,4,5,6-tetrahydro-7H-indazol-7-ylidene)-2-fluoroethyl)carbamoyl)-2,4-dimethylthiazole-5-sulfonamide]"
6,1 nM,"Cc1cc(S(=O)(=O)NC(=O)NC/C(F)=C2\COCc3[nH]nc(Cc4ccc(Cl)cc4Cl)c32)sc1Cl [Compound #190, (E)-5-chloro-N-((2-(3-(2,4-dichlorobenzyl)-1,7-dihydropyrano[3,4-c]pyrazol-4(5H)-ylidene)-2-fluoroethyl)carbamoyl)-4-methylthiophene-2-sulfonamide]"
7,1 nM,"COc1nc2ccc(S(=O)(=O)NC(=O)NC/C=C3\CCCc4cnn(Cc5ccc(Cl)cc5Cl)c43)cc2o1 [Compound #177, (E)-N-((2-(1-(2,4-dichlorobenzyl)-1,4,5,6-tetrahydro-7H-indazol-7-ylidene)ethyl)carbamoyl)-2-methoxybenzo[d]oxazole-6-sulfonamide]"
8,83 nM,"Cc1c(S(=O)(=O)NC(=O)NC/C(F)=C2\CCCc3cnn(Cc4ccc(Cl)cc4Cl)c32)cnn1C [Compound #169, (Z)—N-((2-(1-(2,4-dichlorobenzyl)-1,4,5,6-tetrahydro-7H-indazol-7-ylidene)-2-fluoroethyl)carbamoyl)-1,5-dimethyl-1H-pyrazole-4-sulfonamide]"
9,3200 nM,"O=C(NC/C(F)=C1\CCCn2nnc(-c3ccc(C(F)(F)F)cc3)c21)NS(=O)(=O)c1cc(Cl)c(Cl)s1 [Compound #164, (Z)-4,5-dichloro-N-((2-fluoro-2-(3-(4-(trifluoromethyl)phenyl)-6,7-dihydro-[1,2,3]triazolo[1,5-a]pyridin-4(5H)-ylidene)ethyl)carbamoyl)thiophene-2-sulfonamide]"
10,7 nM,"Cc1cc(Cl)ccc1Cc1nnn2c1/C(=C(\F)CNC(=O)NS(=O)(=O)c1cc(Cl)c(Cl)s1)CCC2 [Compound #167, (Z)-4,5-dichloro-N-((2-(3-(4-chloro-2-methylbenzyl)-6,7-dihydro-[1,2,3]triazolo[1,5-a]pyridin-4(5H)-ylidene)-2-fluoroethyl)carbamoyl)thiophene-2-sulfonamide]"
11,4 nM,"Cc1c(S(=O)(=O)NC(=O)NC/C=C2\CCCc3cnn(Cc4ccc(Cl)cc4Cl)c32)cnn1C [Compound #172, (E)-N-((2-(1-(2,4-dichlorobenzyl)-1,4,5,6-tetrahydro-7H-indazol-7-ylidene)ethyl)carbamoyl)-1,5-dimethyl-1H-pyrazole-4-sulfonamide]"
12,164 nM,"Cc1nn(C)cc1S(=O)(=O)NC(=O)NC/C(F)=C1\CCCc2cnn(Cc3ccc(Cl)cc3Cl)c21 [Compound #180, (Z)—N-((2-(1-(2,4-dichlorobenzyl)-1,4,5,6-tetrahydro-7H-indazol-7-ylidene)-2-fluoroethyl)carbamoyl)-1,3-dimethyl-1H-pyrazole-4-sulfonamide]"
13,218 nM,"Cc1nc2cc(S(=O)(=O)NC(=O)NC/C(F)=C3\CCCc4cnn(Cc5ccc(Cl)cc5Cl)c43)ccc2o1 [Compound #183, (Z)—N-((2-(1-(2,4-dichlorobenzyl)-1,4,5,6-tetrahydro-7H-indazol-7-ylidene)-2-fluoroethyl)carbamoyl)-2-methylbenzo[d]oxazole-5-sulfonamide]"
14,16 nM,"COc1cc(S(=O)(=O)NC(=O)NC/C(F)=C2\CCCc3cnn(Cc4ccc(Cl)cc4Cl)c32)ccc1Cl [Compound #175, (Z)-4-Chloro-N-((2-(1-(2,4-dichlorobenzyl)-1,4,5,6-tetrahydro-7H-indazol-7-ylidene)-2-fluoroethyl)carbamoyl)-3-methoxybenzenesulfonamide]"
15,6 nM,"Cc1cc(S(=O)(=O)NC(=O)NC/C(F)=C2\CCCc3onc(Cc4ccc(Cl)cc4Cl)c32)sc1Cl [Compound #181, (Z)-5-chloro-N-((2-(3-(2,4-dichlorobenzyl)-6,7-dihydrobenzo[d]isoxazol-4(5H)-ylidene)-2-fluoroethyl)carbamoyl)-4-methylthiophene-2-sulfonamide]"
16,8 nM,"Cc1cc(Cl)ccc1Cc1nnn2c1/C(=C(\F)CNC(=O)NS(=O)(=O)c1cc(C)c(Cl)s1)CCC2 [Compound #188, (Z)-5-chloro-N-((2-(3-(4-chloro-2-methylbenzyl)-6,7-dihydro-[1,2,3]triazolo[1,5-a]pyridin-4(5H)-ylidene)-2-fluoroethyl)carbamoyl)-4-methylthiophene-2-sulfonamide]"
17,102 nM,"CN1CCC(n2ncc3c2/C(=C/CNC(=O)NS(=O)(=O)c2cc(Cl)c(Cl)s2)CCC3)CC1 [Compound #151, (E)-4,5-dichloro-N-((2-(1-(1-methylpiperidin-4-yl)-1,4,5,6-tetrahydro-7H-indazol-7-ylidene)ethyl)carbamoyl)thiophene-2-sulfonamide]"
18,30 nM,"Cn1nc(Cc2ccc(Cl)cc2Cl)c2c1COC/C2=C(/F)CNC(=O)NS(=O)(=O)c1cc(Cl)c(Cl)s1 [Compound #186, (E)-4,5-dichloro-N-((2-(3-(2,4-dichlorobenzyl)-1-methyl-1,7-dihydropyrano[3,4-c]pyrazol-4(5H)-ylidene)-2-fluoroethyl)carbamoyl)thiophene-2-sulfonamide]"
19,467 nM,"O=C(NC/C(F)=C1\CCCc2cnn(CCc3ccc(C(F)(F)F)cc3)c21)NS(=O)(=O)c1cc(Cl)c(Cl)s1 [Compound #157, (Z)-4,5-dichloro-N-((2-fluoro-2-(1-(4-(trifluoromethyl)phenethyl)-1,4,5,6-tetrahydro-7H-indazol-7-ylidene)ethyl)carbamoyl)thiophene-2-sulfonamide]"
20,1 nM,"O=C(NC/C=C1\CCCc2cnn(Cc3ccc(Cl)cc3Cl)c21)NS(=O)(=O)c1ccc2[nH]c(=O)oc2c1 [Compound #176, (E)-N-((2-(1-(2,4-dichlorobenzyl)-1,4,5,6-tetrahydro-7H-indazol-7-ylidene)ethyl)carbamoyl)-2-oxo-2,3-dihydrobenzo[d]oxazole-6-sulfonamide]"
21,149 nM,"COc1ccc(S(=O)(=O)NC(=O)NC/C(F)=C2\CCCc3cnn(Cc4ccc(Cl)cc4Cl)c32)cc1OC [Compound #174, (Z)—N-((2-(1-(2,4-dichlorobenzyl)-1,4,5,6-tetrahydro-7H-indazol-7-ylidene)-2-fluoroethyl)carbamoyl)-3,4-dimethoxybenzenesulfonamide]"
22,1 nM,"Cc1cc(S(=O)(=O)NC(=O)NC/C(F)=C2\CCCc3[nH]nc(Cc4ccc(Cl)cc4Cl)c32)sc1Cl [Compound #187, (Z)-5-chloro-N-((2-(3-(2,4-dichlorobenzyl)-1,5,6,7-tetrahydro-4H-indazol-4-ylidene)-2-fluoroethyl)carbamoyl)-4-methylthiophene-2-sulfonamide]"

# Same assay, conditions: unit nM
row,Ki [nM],Compound
1,0.4,"COc1ccc(S(=O)(=O)NC(=O)NC/C(F)=C2\CCCc3[nH]nc(Cc4ccc(Cl)cc4Cl)c32)cc1Cl [Compound #179, (Z)-3-chloro-N-((2-(3-(2,4-dichlorobenzyl)-1,5,6,7-tetrahydro-4H-indazol-4-ylidene)-2-fluoroethyl)carbamoyl)-4-methoxybenzenesulfonamide]"
